≈ marks a conversion by molar mass, not a printed value.
Tests used:
in vivo = test: in vivo
Protocol: The cytotoxic evaluation was accomplished using the decorum designed by ([Khan et al., 2011]). To a plate of 96 wells, artificial seawater and nauplii were added. Test samples were taken in wells (40, 20, 10, 5 μg/mL) after making up the final volume with seawater, the plates were left uncovered under the lamp, and after 24 h, the number of surviving larvae was calculated. For samples having ≥50% mortality, the median lethal conc was calculated using the table curve software, Doxorubicin was used as + ve control, and DMSO was the -ve. The percentage of killed organisms was found using the formula. Percentage Mortality=No of dead shrimps÷Total Number of Shrimps×100
The results of all the experiments were articulated as mean ± SD. Each test was performed in triplicate. TAC assay was analyzed by one-way analysis of variance (ANOVA) following DUNCAN’S test using the statistical package for social sciences 18 and p < 0.05 was considered as significant where appropriate. For samples having ≥50% mortality, the median lethal concentration (LC50) was calculated using the table curve software.
This evaluation test forms the basis for the bioactive scanning of compounds for their potential as anti-cancer moieties, to be investigated on a large scale ([Amanullah et al., 2012]). […] Similarities between Artemia salina and mammalian cells have been reported due to DNA-dependent RNA polymerases ([Birndorf et al., 1975]). These Schiff bases were investigated for their cytotoxic potential. […] Doxorubicin was used as the positive control.

[1] = test system: Streptomyces 85 E strains; test: Protein kinase inhibition assay; format: cell-based; design: key: Active = Bacterial activity; --- = no activity; conditions: Sample Concentration = 20 μg/mL; Surfactin B 20 μg/mL
Protocol: The protocol followed for this is mentioned ([Fatima et al., 2015]). To assess the test compound’s inhibitory potential, Streptomyces 85 E strains were used, which were refreshed in tryptone soya broth at 37 for 1 day. Spores from refreshed cultures were utilized to prepare the bacterial culture. 100 μg compound was loaded on 5 mm discs of filter paper. These were kept on sowed plates. DMSO-permeated discs were the -ve control. The incubation period was 7 days, and outcomes were stated as bald and clear zones of inhibition.
These synthetic products were evaluated to estimate the inhibitory potential for protein kinase of […] 85 E. Protein kinase is involved with the mycelium production of this species, so the growth patterns were observed as the bald zone. […] One of the propitious targets in cancer treatment is the inhibition of protein kinases. Protein phosphorylation by protein kinases at various residues regulates diverse biological processes, which may include apoptosis, proliferation and differentiation of cells. Deregulation at any step in early tumorigenesis may lead to cancer ([Yao et al., 2011]). Aerial hyphae formation in Streptomyces depends upon protein kinase activity; this scenario is exploited in this test; to inquire about these compounds’ kinase inhibition potential and to look at their anti-cancer potential. The advantage of using Streptomyces for kinase inhibition assay is its predisposition to a wide range of eukaryotic cells. Whole-cell assay of Streptomyces not only identifies the compound’s cytotoxic potential but also identifies signal transduction inhibitors for various activities, e.g., antitumor, anti-mycobacterial, and anti-infective ([Waters et al., 2002]). […] Activity with a bald zone of 10.5 mm and a clear zone of 7.5 mm, following is 5a with a bald zone of 9 mm and a clear zone of 6 mm, and for 5g, values are 7.5 and 6 mm, respectively. It means that these compounds have the potential for protein kinase inhibition as well as the toxicity of the compound.

[2] = test system: Streptomyces 85 E strains; test: Protein kinase inhibition assay; format: cell-based; conditions: Sample Concentration = 20 μg/mL; Surfactin B 20 μg/mL
[3] = test system: Aspergillus fumigatus (FCBP-66); test: Antifungal disc diffusion assay; format: cell-based; conditions: Aspergillus fumigatus; 20 μg/disc
Protocol: (§1) The antifungal response to these chemical moieties was evaluated through a procedure designated by ([Zahra et al., 2017]). Amphotericin B (4 mg/mL DMSO) is used as + ve control and DMSO as-ve one (5 μL/disc). Sterile SDA-coated plates were used, on which 100 µL of suspension of spores for each strain (previously reaped-in-Tween-20 solution) was spread. Discs of sterile filter paper containing 5 µL of sample solution (4 mg/mL DMSO) were kept on plates and incubated for 2 days at 28°C. Zones of inhibition were recorded.
(§2) The Synthetic compound library was subjected to an antifungal assay using five different strains of Fungai, i.e., Fusarium solani (FCBP-0291), Aspergillus fumigatus (FCBP-66), Aspergillus flavus (FCBP-0064), Aspergillus niger (FCBP-0198) and Mucor species (FCBP-0300). Amphotericin B was the standard drug used. […] The outcomes are concise in Table 5.

[4] = test system: Mucor species (FCBP-0300); test: Antifungal disc diffusion assay; format: cell-based; conditions: Mucor; 20 μg/disc
Protocol: as §1, §2

[5] = test system: Aspergillus flavus (FCBP-0064); test: Antifungal disc diffusion assay; format: cell-based; conditions: Aspergillus flavus; 20 μg/disc
Protocol: as §1, §2

[6] = test system: Fusarium solani (FCBP-0291); test: Antifungal disc diffusion assay; format: cell-based; conditions: Fusarium solani, 20 μg/disc; read-out: Zone of inhibition, F. solani
Protocol: as §1, §2

[7] = test system: Aspergillus niger (FCBP-0198); test: Antifungal disc diffusion assay; format: cell-based; conditions: Aspergillus niger; 20 μg/disc
Protocol: as §1, §2

[8] = test system: Escherichia coli (ATCC-25922); test: Antibacterial assay, micro broth dilution; format: cell-based; design: key: Active = Bacterial activity; --- = no activity; conditions: 25 μg/mL
[9] = test system: Staphylococcus aureus (ATCC-6538); test: Antibacterial assay, micro broth dilution; format: cell-based; design: key: Active = Bacterial activity; --- = no activity; conditions: 25 μg/mL
MRSA [10] = test: Antibacterial assay, resistant strains; format: cell-based, Staphylococcus aureus; conditions: 25 μg/mL; resistant strain
MRSA [11] = test: Antibacterial assay, resistant strains; format: cell-based; conditions: Staphylococcus aureus, resistant strain
Source text: (§3) The micro broth dilution method was used to establish the antibacterial potential of test samples against Staphylococcus aureus (ATCC-6538), Bacillus subtilis (ATCC-6633), Escherichia coli (ATCC-25922), Klebsiella pneumoniae (ATCC-1705), and Pseudomonas aeruginosa (ATCC-15442) and for the resistant strains of MRSA Staphylococcus aureus, P. aeruginosa and Escherichia coli. The procedure used is described by ([Sarker et al., 2007]). Bacterial inoculum was formed under aseptic conditions keeping the density near 5 × 10^4 CFU/mL in pre-autoclaved nutrient broth. Test samples of an aliquot of 5 µL were shifted to labeled wells of 96 well plates, and after that addition of 195 µL of nutrient broth; was accomplished. After that, a 2-fold serial dilution of every sample was arranged to get final concentrations of 12.5 μg/mL. Then, with the help of a micropipette, 195 µL of bacterial culture of respective strains was poured into each well; further advancement was incubating of plates for 30 min at the temperature of 37°C. […] Incubation of plates was again carried out at 37°C for 1 day, absorbance was noted, and net change in turbidity was the difference between two values of absorbance.
(§4) Schiff base tri-azo compounds were investigated for antibacterial potential. […] 6.25 μg/mL for 5b and 5g, and the least, Table 4 3.12 μg/mL was for 5f. […] Substituents with electron-withdrawing attributes, e.g., -NO2, -Cl, -OH on the aromatic ring, assert a great impact on the antibacterial activity of synthetic compounds. It is also observed that an increase in the number of -OH groups tend to enhance the activity ([Hosamani and Shingalapur, 2011]). Due to the difference in cell-wall composition of Gram + ve and -ve bacteria, different compounds show different features towards the same micro-organism ([Goszczyn’ska et al., 2015]).

resistant S. aureus = test: Antibacterial assay, resistant strains; format: cell-based, Staphylococcus aureus; conditions: resistant strain
Source text: as §3, §4

[12] = test system: Bacillus subtilis (ATCC-6633); test: Antibacterial assay, micro broth dilution; format: cell-based; design: key to Antibacterial activity, Bacillus subtilis: Activity: Active = Bacterial activity; --- = no activity
Source text: as §3, §4

[13] = test system: Pseudomonas aeruginosa (ATCC-15442); test: Antibacterial assay, micro broth dilution; format: cell-based; design: key: Active = Bacterial activity; --- = no activity; conditions: 25 μg/mL
resistant E.coli = test: Antibacterial assay, resistant strains; format: cell-based, Escherichia coli; conditions: resistant strain
Source text: as §3, §4

resistant P. aeruginosa = test: Antibacterial assay, resistant strains; format: cell-based; conditions: resistant strain
Source text: as §3, §4

[14] = test system: Klebsiella pneumoniae (ATCC-1705); test: Antibacterial assay, micro broth dilution; format: cell-based; design: key: Active = Bacterial activity; --- = no activity; conditions: 25 μg/mL
[15] = test system: Staphylococcus aureus (ATCC-6538); test: Antibacterial assay, micro broth dilution; format: cell-based; conditions: ATCC6538, read-out: S. aureus MIC
Source text: as §3, §4

[16] = test system: Klebsiella pneumoniae (ATCC-1705); test: Antibacterial assay, micro broth dilution; format: cell-based; conditions: ATCC1705
Source text: as §3, §4

[17] = test system: Escherichia coli (ATCC-25922); test: Antibacterial assay, micro broth dilution; format: cell-based; conditions: ATCC25922, read-out: E. coli MIC
Source text: as §3, §4

[18] = test system: Pseudomonas aeruginosa (ATCC-15442); test: Antibacterial assay, micro broth dilution; format: cell-based; conditions: ATCC15442
Source text: as §3, §4

COc1cccc2c1C(=O)c1c(O)c3c(c(O)c1C2=O)C[C@@](O)(C(=O)CO)C[C@@H]3O[C@H]1C[C@H](N)[C@H](O)[C@H](C)O1 [Doxorubicin, reference compound]
LC50 at 24 h (in vivo): 5.7 µg/mL (≈ 10.5 µM)

Surfactin B [reference compound]
Clear zone [1]: ---
Bald zone [2]: 22.3 mm

C[C@@H]1[C@H](O)[C@@H](C)/C=C/C=C/C=C/C=C/C=C/C=C/C=C/[C@H](O[C@@H]2O[C@H](C)[C@@H](O)[C@H](N)[C@@H]2O)C[C@@H]2O[C@](O)(C[C@@H](O)C[C@@H](O)[C@H](O)CC[C@@H](O)C[C@@H](O)CC(=O)O[C@H]1C)C[C@H](O)[C@H]2C(=O)O [Amphotericin B, reference compound]
zone of inhibition at 20 µg/disc [3]: 10 mm
zone of inhibition at 20 µg/disc [4]: 11.5 mm
zone of inhibition at 20 µg/disc [5]: 12 mm
zone of inhibition at 20 µg/disc [6]: 11.5 mm
zone of inhibition at 20 µg/disc [7]: 12.5 mm

O=C(O)c1cn(C2CC2)c2cc(N3CCNCC3)c(F)cc2c1=O [Ciprofloxacin, reference compound]
Antibacterial activity, E. coli: Activity [8]: Active
Antibacterial activity, S. aureus: Activity [9]: Active
Antibacterial activity, MRSA: Activity (MRSA [10]): Active
MIC (MRSA [11]): 3.12 µg/mL (≈ 9.42 µM)
Antibacterial activity, resistant S. aureus: Activity (resistant S. aureus; 25 μg/mL): Active
MIC (resistant S. aureus; Staphylococcus aureus): 3.12 µg/mL (≈ 9.42 µM)
Antibacterial activity, Bacillus subtilis: Activity ([12]; 25 μg/mL): Active
MIC ([12]; Bacillus subtilis, ATCC6633): 3.12 µg/mL (≈ 9.42 µM)
Antibacterial activity, Pseudomonas aeruginosa: Activity [13]: Active
Antibacterial activity, resistant E.coli: Activity (resistant E.coli; 25 μg/mL): Active
MIC (resistant E.coli; Escherichia coli): 3.12 µg/mL (≈ 9.42 µM)
Antibacterial activity, resistant P. aeruginosa: Activity (resistant P. aeruginosa; 25 μg/mL): Active
MIC (resistant P. aeruginosa; Pseudomonas aeruginosa): 3.12 µg/mL (≈ 9.42 µM)
Antibacterial activity, Klebsiella pneumoniae: Activity [14]: Active
MIC [15]: 3.12 µg/mL (≈ 9.42 µM)
MIC [16]: 3.12 µg/mL (≈ 9.42 µM)
MIC [17]: 3.12 µg/mL (≈ 9.42 µM)
MIC [18]: 3.12 µg/mL (≈ 9.42 µM)
